Experimental data as given in the CheMixHub viscosity set.

Experiment: xn = mol fraction of the nth substance listed

CCOCCO + CC(C)O
viscosity [mPa·s], 101.33 kPa
Details | x1 = 0.1024 | x1 = 0.2002 | x1 = 0.301 | x1 = 0.4035 | x1 = 0.5037 | x1 = 0.6022 | x1 = 0.6984 | x1 = 0.8009 | x1 = 0.9017
298.15 K | 1.858 | 1.764 | 1.703 | 1.692 | 1.682 | 1.693 | 1.711 | 1.756 | 1.773
303.15 K | 1.614 | 1.54 | 1.495 | 1.49 | 1.491 | 1.504 | 1.518 | 1.566 | 1.575
308.15 K | 1.404 | 1.356 | 1.324 | 1.325 | 1.329 | 1.34 | 1.36 | 1.398 | 1.413
313.15 K | 1.233 | 1.19 | 1.17 | 1.176 | 1.19 | 1.203 | 1.217 | 1.259 | 1.267

CNC(C)=O + CC(C)O
303.15 K, 101 kPa
Details | viscosity [mPa·s]
x1 = 0.11 | 1.922
x1 = 0.2078 | 2.005
x1 = 0.3061 | 2.099
x1 = 0.3988 | 2.217
x1 = 0.4962 | 2.377
x1 = 0.5547 | 2.49
x1 = 0.6962 | 2.824
x1 = 0.8005 | 3.115
x1 = 0.8927 | 3.418

CCOCCO + CCC(C)=O
298.15 K, 101 kPa
Details | viscosity [mPa·s]
x2 = 0.1219 | 1.479
x2 = 0.2381 | 1.178
x2 = 0.3488 | 0.948
x2 = 0.4545 | 0.767
x2 = 0.5555 | 0.609
x2 = 0.6521 | 0.524
x2 = 0.7446 | 0.457
x2 = 0.8333 | 0.419
x2 = 0.9183 | 0.387

Cc1ccc(NC(=O)NCCCCCCCCCCCCCCC(C)C)cc1NC(=O)NCCCCCCCCCCCCCCC(C)C + CCCCC
Details | viscosity [mPa·s]
293.15 K, 100 kPa, x1 = 0.0001 | 2

CC(CC(C)(C)C)CP(=O)(O)CC(C)CC(C)(C)C (stereo unspecified) + CCCCCC
298.15 K, 101 kPa
Details | viscosity [mPa·s]
x1 = 0.0033 | 0.305
x1 = 0.0159 | 0.36
x1 = 0.0175 | 0.368
x2 = 0.0987 | 89.32
x2 = 0.1765 | 69.68
x2 = 0.2746 | 47.91
x2 = 0.4476 | 23.62
x2 = 0.642 | 9.432
x2 = 0.7262 | 5.982
x2 = 0.73 | 5.931
x2 = 0.796 | 3.39
x2 = 0.8384 | 2.461
x2 = 0.8555 | 2.122
x2 = 0.9097 | 1.221
x2 = 0.9111 | 1.203
x2 = 0.9623 | 0.504

CCCCCCCCCCOC(C)=O + CCCCCC
303.15 K, 101.3 kPa
Details | viscosity [mPa·s]
x1 = 0.2001 | 0.4713
x1 = 0.4057 | 0.7528
x1 = 0.5086 | 0.9289
x1 = 0.5995 | 1.116
x1 = 0.7551 | 1.473

CCOCCO + CCCCCC
viscosity [mPa·s], 101.33 kPa
Details | x1 = 0.0967 | x1 = 0.1963 | x1 = 0.2958 | x1 = 0.394 | x1 = 0.4948 | x1 = 0.5958 | x1 = 0.6979 | x1 = 0.7955 | x1 = 0.8993
298.15 K | 0.335 | 0.376 | 0.433 | 0.504 | 0.595 | 0.716 | 0.875 | 1.087 | 1.452
303.15 K | 0.318 | 0.357 | 0.406 | 0.472 | 0.554 | 0.663 | 0.803 | 0.987 | 1.315
308.15 K | 0.303 | 0.339 | 0.385 | 0.443 | 0.517 | 0.615 | 0.741 | 0.907 | 1.199
313.15 K | 0.29 | 0.322 | 0.361 | 0.415 | 0.484 | 0.573 | 0.686 | 0.829 | 1.083

CCOCCO + CCCCCCC
viscosity [mPa·s], 101.33 kPa
Details | x1 = 0.1091 | x1 = 0.1973 | x1 = 0.299 | x1 = 0.4 | x1 = 0.5014 | x1 = 0.6074 | x1 = 0.6986 | x1 = 0.799 | x1 = 0.8989
298.15 K | 0.422 | 0.455 | 0.51 | 0.585 | 0.671 | – | 0.922 | 1.12 | 1.39
303.15 K | 0.398 | 0.428 | 0.478 | 0.541 | 0.619 | 0.673 | 0.843 | 1.013 | 1.247
308.15 K | 0.377 | 0.404 | 0.449 | 0.506 | 0.574 | 0.63 | 0.772 | 0.927 | 1.133
313.15 K | 0.355 | 0.382 | 0.422 | 0.472 | 0.535 | 0.592 | 0.713 | 0.844 | 1.026

CCOCCO + CCCCCCCC
viscosity [mPa·s], 101.33 kPa
Details | x1 = 0.0976 | x1 = 0.1994 | x1 = 0.3003 | x1 = 0.4001 | x1 = 0.5004 | x1 = 0.5944 | x1 = 0.6962 | x1 = 0.7983 | x1 = 0.8969
298.15 K | 0.524 | 0.566 | 0.619 | 0.687 | 0.772 | 0.87 | 1.003 | 1.179 | 1.421
303.15 K | 0.49 | 0.527 | 0.574 | 0.632 | 0.71 | 0.795 | 0.911 | 1.069 | 1.279
308.15 K | 0.463 | 0.494 | 0.538 | 0.591 | 0.657 | 0.732 | 0.834 | 0.972 | 1.155
313.15 K | 0.434 | 0.462 | 0.5 | 0.55 | 0.609 | 0.673 | 0.763 | 0.896 | 1.05

CCOCCO + CCCCCCCCC
viscosity [mPa·s], 101.33 kPa
Details | x1 = 0.098 | x1 = 0.2031 | x1 = 0.3023 | x1 = 0.4074 | x1 = 0.505 | x1 = 0.601 | x1 = 0.7022 | x1 = 0.8034 | x1 = 0.9003
298.15 K | 0.662 | 0.696 | 0.746 | 0.822 | 0.9 | 1.024 | 1.107 | 1.263 | 1.469
303.15 K | 0.62 | 0.646 | 0.69 | 0.753 | 0.821 | 0.929 | 1.005 | 1.137 | 1.316
308.15 K | 0.577 | 0.601 | 0.64 | 0.697 | 0.757 | 0.853 | 0.916 | 1.034 | 1.191
313.15 K | 0.537 | 0.558 | 0.596 | 0.642 | 0.698 | 0.778 | 0.837 | 0.939 | 1.075

CCOCCO + CCCCCCCCCC
viscosity [mPa·s], 101.33 kPa
Details | x1 = 0.0958 | x1 = 0.2018 | x1 = 0.2985 | x1 = 0.4011 | x1 = 0.4984 | x1 = 0.5978 | x1 = 0.6989 | x1 = 0.7994 | x1 = 0.8984
298.15 K | 0.828 | 0.851 | 0.905 | 0.962 | 1.046 | 1.128 | 1.223 | 1.345 | 1.512
303.15 K | 0.767 | 0.785 | 0.827 | 0.879 | 0.946 | 1.016 | 1.108 | 1.209 | 1.354
308.15 K | 0.709 | 0.725 | 0.766 | 0.806 | 0.866 | 0.929 | 1.001 | 1.096 | 1.223
313.15 K | 0.661 | 0.681 | 0.705 | 0.744 | 0.797 | 0.844 | 0.921 | 0.992 | 1.103

CC12CCC(CC1=O)C2(C)C (stereo unspecified) + CCCCCCCCCC(=O)O
101.33 kPa, x2 = 0.7
Details | viscosity [mPa·s]
298.15 K | 10.76
303.15 K | 9.184
308.05 K | 7.889
313.05 K | 6.866
318.15 K | 6.143
323.05 K | 5.9

CCOCCO + CCCCCCCCCCCC
viscosity [mPa·s], 101.33 kPa
Details | x1 = 0.1001 | x1 = 0.1987 | x1 = 0.3009 | x1 = 0.3972 | x1 = 0.5014 | x1 = 0.5996 | x1 = 0.6933 | x1 = 0.7988 | x1 = 0.8984
298.15 K | 1.288 | 1.294 | 1.321 | 1.339 | 1.379 | 1.412 | 1.453 | 1.529 | 1.636
303.15 K | 1.171 | 1.174 | 1.195 | 1.223 | 1.256 | 1.284 | 1.317 | 1.387 | 1.465
308.15 K | 1.075 | 1.076 | 1.09 | 1.115 | 1.138 | 1.166 | 1.191 | 1.254 | 1.316
313.15 K | 0.986 | 0.987 | 0.997 | 1.02 | 1.045 | 1.063 | 1.082 | 1.139 | 1.191

CC12CCC(CC1=O)C2(C)C (stereo unspecified) + CCCCCCCCCCO
101.33 kPa, x2 = 0.7
Details | viscosity [mPa·s]
298.15 K | 12.14
303.15 K | 10.24
308.05 K | 8.898
313.15 K | 7.817
318.05 K | 6.806
323.05 K | 5.915

CCOCCO + CCCCCCCCO
298.15 K, 101 kPa
Details | viscosity [mPa·s]
x1 = 0.1384 | 6.062
x1 = 0.2654 | 5.061
x1 = 0.3825 | 4.268
x1 = 0.4907 | 3.649
x1 = 0.591 | 3.172
x1 = 0.6843 | 2.805
x1 = 0.7713 | 2.504
x1 = 0.8525 | 2.266
x1 = 0.9286 | 2.078

CC(CC(C)(C)C)CP(=O)(O)CC(C)CC(C)(C)C (stereo unspecified) + CCCCCCCO
298.15 K, 101 kPa
Details | viscosity [mPa·s]
x1 = 0.0091 | 6.029
x1 = 0.0166 | 6.297
x1 = 0.0189 | 6.395
x2 = 0.0832 | 103
x2 = 0.1509 | 92.76
x2 = 0.2814 | 72.97
x2 = 0.4338 | 51.94
x2 = 0.5979 | 33.45
x2 = 0.6948 | 24.29
x2 = 0.7164 | 22.65
x2 = 0.819 | 14.88
x2 = 0.83 | 13.87
x2 = 0.8984 | 10.18
x2 = 0.9056 | 9.875
x2 = 0.9596 | 7.316

CCOCCO + CCCCCCCO
298.15 K, 101 kPa
Details | viscosity [mPa·s]
x1 = 0.1253 | 4.967
x1 = 0.2438 | 4.207
x1 = 0.3559 | 3.655
x1 = 0.4623 | 3.23
x1 = 0.5632 | 2.902
x1 = 0.6592 | 2.617
x1 = 0.7505 | 2.383
x1 = 0.8376 | 2.2
x1 = 0.9207 | 2.041

CCOCCO + CCCCCO
298.15 K, 101 kPa
Details | viscosity [mPa·s]
x1 = 0.098 | 3.167
x1 = 0.1965 | 2.864
x1 = 0.2954 | 2.619
x1 = 0.3947 | 2.431
x1 = 0.4945 | 2.283
x1 = 0.5947 | 2.178
x1 = 0.6953 | 2.099
x1 = 0.7964 | 2.027
x1 = 0.898 | 1.954

Oc1ccc(Cl)cc1 + CCCCCOC(C)=O
Details | viscosity [mPa·s]
298.15 K, 101 kPa, x1 = 0.5 | 1.27
